Data reported in patent US9962333B2, “Timed release of substances to treat ocular disorders” (BOARD OF TRUSTEES OF NORTHERN ILLINOIS UNIVERSITY, priority 2013, dated 2018).
Values after ≈ are worked out from the molar mass of the structure shown.

Test: physchem
Conditions: 37 °C, aqueous with cosolvent or surfactant or cyclodextrin, thermodynamic from solid
Protocol: (a) 50 mg of riboflavin was mixed with different concentrations of HP-β-CD (5, 10, 15, 20, 25, 30 mM)
(b) the mixture was stirred on rotary shaker for 72 hours at 37° C.
(c) after reaching equilibrium, samples were filtered through a 0.2 μm filter and suitably analyzed using UV-vis spectrophotometer.
(b) The mixture was stirred for 72 hrs. on a rotary shaker at 37° C.
(c) After reaching equilibrium, samples were filtered through 0.2 μm membrane filter & analyzed using a spectrophotometer.
(b) The solutions were left to equilibrate for 3 days on a shaker.
(c) After filtration, the solutions were analyzed by UV-vis spectroscopy.
The UV-vis absorption spectrum was obtained for each solution.
The data was used to plot a phase solubility curve for both the cyclodextrine.
50 mg of ofloxacin was added to each sample and then shaken for 72 hrs to attain equilibrium.

solubility at 72 h (Solubility for HPβ CD): 33 mg/mL (≈ 87.8 mM)
solubility at 72 h (Solubility for methyl β CD): 31.1 mg/mL (≈ 82.6 mM)
Structure (SMILES): Cc1cc2nc3c(=O)[nH]c(=O)nc-3n(C[C@H](O)[C@H](O)[C@H](O)CO)c2cc1C [Riboflavin, riboflavin]
